Earlier results on 1 compound are cited in US20240269084A1, “DELAYED RELEASE COMPOSITIONS OF DIMETHYL FUMARATE” (Zim Laboratories Limited, priority 2021, published 2024).

Structures are written as SMILES. Counter-ions that a name gives are not always drawn.

In the case of `COC(=O)/C=C/C(=O)OC` [Dimethyl fumarate, dimethyl (E) butenedioate], the Solubility in water result is listed as “highly soluble in water”.
